Measurements from US10294470B2, “Electronic expression of the inward rectifier in cardiocytes derived from human induced pluripotent stem cells” (The Research Foundation for The State University of New York, priority 2013, dated 2019).

System: h-iPSC-derived cardiac myocytes
Assay: Current clamp action potential recording in paced h-iPSC-derived cardiac myocytes with and without electronic IK1
Assay type: cell-based, human
Settings: 1 μM; for effect on action potential duration (APD): paced cells with electronic expression of IK1,synthetic; for effect on action potential duration / repolarization / effect on spontaneous activity: paced cells without electronic IK1
Procedure: Commercially-available iPSC-derived cardiac myocytes (iCell Dynamics, WI), were prepared according to manufacturer's instructions. Briefly, ICELL® cardiac myocytes (cryopreserved single-cell suspensions in 1 ml cryovials) were stored in liquid nitrogen. Vials were thawed in a waterbath (37° C.). Cells were washed then rinsed with 1 ml of RT “ICELL® Cardiomyocyte Plating Medium.” An additional 8 ml of plating medium was added and cells mixed with solution by gentile inversion. Cardiocytes were seeded on 15 mm cover-slips coated with 0.01% (w/v) gelatin solution in 12-well plates. Cardiocytes were seeded (20,000-40,000/dish) in 2 ml of RT plating medium, permitting single cell culture, and incubated for 2+ days at 37° C., 7% CO2. Non adherent cells were removed by rinsing with “ICELL® Cardiomyocyte Maintenance Medium.” A further 2 ml of maintenance medium was added. Maintenance medium was changed every 2 days, and cells were used within 1 week.
iPSC-derived cardiocytes were voltage clamped. Currents were recorded using whole-cell clamp at RT. Cells in the recording chamber (300 μl) were continuously perfused with Tyrode. Pipettes fabricated from borosilicate glass (Flaming/Brown horizontal micropipette puller) and tips heat-polished (NARISHIGE® microforge). Pipettes contained (mM): 10 NaCl, 125 KCl, 1 MgSO4, 5 EGTA, 5 ATP (Mg salt), 5 Tris-creatinephosphate, 0.3 GTP, 10 HEPES, pH 7.2. Extracellular solution (mM): 150 NaCl, 5.4 KCl, 0.5 Na2HPO4, 1 MgCl2, 2 CaCl2), 10 glucose, 10 HEPES, pH7.4. After establishing a seal (1-10 Gohm), suction and voltage pulses were used to rupture the patch. Currents were recorded (Axopatch-1D, Molecular Dynamics, CA) and interfaced to a PENTIUM® 4 computer via a DIGIDATA® 1322A (Molecular Dynamics, CA). PCLAMP® 9.0 (Molecular Dynamics, CA) was used to control protocols and data acquisition.
We used an Analog and Digital I/O board PCIe-DAS1602/16 (Measurement Computing Corporation) installed on a on a DELL PRECISION® T7500 workstation with 2 INTEL® XEON® CPU E5520 to transfer the Vm signal to the signal of IK1 current. Source code is in the supplement.
Analysis was performed using PCLAMP® 9 (Molecular Dynamics). Action potential duration (APD) was computed for 50% (APD50) and 90% (APD90) of repolarization in ms. Maximum rate of rise of the AP upstroke was determined (dVm/dtmax) in mV/ms. Resting membrane potential was recorded prior to each AP. For spontaneous APs, the diastolic characteristics were reported for the period of time between complete AP repolarization and the beginning of depolarization in the subsequent AP. Duration, and minimum/mean potentials were computed for the diastolic period.
In order to overcome the lack of IK1 in h-iPSC-derived cardiac myocytes, we developed a variation of the dynamic clamp approach to inject a synthetic version of IK1 (FIG. 1). The center of the system is the isolated h-iPSC-derived cardiac myocyte under whole cell voltage or current clamp. Whole cell clamp is accomplished with a gigaseal under conventional current clamp mode. The membrane voltage of the cardiac myocyte is output from the amplifier and fed into a computer via a digitizer which calculates the inward rectifier current for the membrane potential, according to the equation shown in FIG. 1. The calculated value of IK1,Synthetic is passed through a potentiometer (used to adjust amplitude without sacrificing digital resolution) to scale IK1 and then summed with the standard stimulation input from PCLAMP®. A switch allows rapid changes between conventional current clamp and summed input. When the summed input is switched on, the myocyte receives the sum of two inputs: the standard AP stimulus current plus IK1,Synthetic from the real-time current simulator. The standard voltage clamp electronics can be driven via the summing circuit without modification of conventional voltage clamp and data recording with only minor software selection changes of input/output channels. […]

## COC(=O)C1=C(C)NC(C)=C([N+](=O)[O-])C1c1ccccc1C(F)(F)F (stereo not drawn) [BayK-8644]
  effect on action potential duration (APD): clear AP prolongation
  effect on action potential duration / repolarization: not uniformly observed
  effect on spontaneous activity: termination of spontaneous full scale AP activity
Listed as BayK8644
  effect on action potential duration (APD): APD is prolonged
  effect on action potential duration / repolarization: severely shortened repolarization
  effect on spontaneous activity: terminated spontaneous activity
With IK1,synthetic
  arrhythmogenic phenomenon of alternans: alternans is observed
With IK1,synthetic expression
  Ratio of APD90 with/without BayK8644: major increase in APD
Without IK1,synthetic expression
  Ratio of APD90 with/without BayK8644: anomalous decrease in APD90
